According to article PMC8763382, “2-Sulfonylpyrimidines as Privileged Warheads for the Development of S. aureus Sortase A Inhibitors” (Frontiers in Molecular Biosciences, 2022):
Several values for one entry are separate records, joined by “and”; a condition that tells them apart may be missing. Identical values can stand only once.

Target: T1, S. aureus SrtA (Staphylococcus aureus, UniProt Q2FV99)
T1 construct: His tag (inferred from IMAC on a HisTrap column); made in house; host or cells: E. coli BL21 Gold (DE3)
T1 sequence (Q2FV99 60-206): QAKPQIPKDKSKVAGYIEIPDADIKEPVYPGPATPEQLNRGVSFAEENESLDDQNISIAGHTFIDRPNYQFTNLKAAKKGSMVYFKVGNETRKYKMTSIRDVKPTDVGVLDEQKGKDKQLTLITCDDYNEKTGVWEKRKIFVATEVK
Assay: fluorometric enzyme assay of SrtA transpeptidation (Abz-LPETG-Dap(Dnp)-OH substrate)
Format: biochemical
Conditions: not given
Description: To evaluate the inhibition potency of the parent sulfonylpyrimidine 4, this compound was tested by means of a fluorometric enzyme assay with recombinantly expressed S. aureus SrtA ([Schmohl et al., 2017b]) and Abz-LPETG-Dap (Dnp)-OH as substrate. […] To verify the irreversible mode of inhibition, we determined the maximum inactivation rate k inact, the dissociation constant of the reversible enzyme-inhibitor complex KI, and the second-order rate of inhibition k 2nd. For compound 4, a k inact = 0.00065 s^−1 was found, which is very low compared to other covalent SrtA inhibitors ([Chan et al., 2017]; [Barthels et al., 2020]; [Jaudzems et al., 2020]).
Inhibition assays of S. aureus SrtA transpeptidation reactions were performed as described previously ([Barthels et al., 2020]). Briefly, the recombinantly expressed SrtA (final concentration: 1 µM) was incubated in assay buffer (50 mM Tris, 150 mM NaCl, 5 mM CaCl2, pH 7.50) with 25 µM of the FRET-pair substrate Abz-LPETG-Dap (Dnp)-OH (Genscript, Piscataway, New Jersey) and 0.5 mM tetraglycine (Sigma Aldrich, St. Louis, Missouri). Inhibitors were added from DMSO stocks. Reactions were initiated by addition of SrtA and monitored for 30 min at 30°C in an Infinite M200 Pro plate reader with λex 320 nm/λem 430 nm (Tecan, Männedorf, Switzerland). Three technical replicates were carried out for each inhibitor in black flat-bottom 96-well plates (Greiner bio-one, Kremsmünster, Austria). The enzyme kinetics of irreversible SrtA inactivation were analyzed as described previously ([Barthels et al., 2020]).

Row | SMILES | Ki [µM]
1 | COc1cccc(NC(=O)c2nc(S(C)(=O)=O)ncc2Cl)c1 [Compound 6e] | > 100
2 | CS(=O)(=O)c1ncc(Cl)c(C(=O)Nc2cccc(-c3ccccc3)c2)n1 [Compound 6f] | > 100

Same assay, conditions: fluorometric enzyme assay, inhibitor concentration 100 µM

Row | SMILES | SrtA inhibition (in words)
3 | CS(=O)(=O)c1ncc(Cl)c(C(=O)Nc2ccc(Oc3ccccc3)cc2)n1 [Compound 6h] | complete abolition of inhibition
4 | CS(=O)(=O)c1ncc(Cl)c(C(=O)NCCSc2ccccc2)n1 [Compound 6n] | complete loss of inhibition
5 | CS(=O)(=O)c1ncc(Cl)c(C(=O)Nc2cccc(C(=O)Nc3ccccc3)c2)n1 [Compound 6m] | inhibition was completely abolished
6 | CS(=O)(=O)c1ncc(Cl)c(C(=O)Nc2cccc(OCc3ccccc3)c2)n1 [Compound 6k] | inhibition was completely abolished
7 | CS(=O)(=O)c1ncc(Cl)c(C(=O)Nc2ccc3c(c2)oc2ccccc23)n1 [Compound 6l] | complete loss of inhibition

Same assay, conditions: maximum inactivation rate; Tris pH 7.50; n. i. = <20% inhibition at 100 µM

Row | SMILES | k inact
8 | CS(=O)(=O)c1ncc(Cl)c(C(=O)Nc2ccc(Oc3ccccc3)cc2)n1 [Compound 6h] | n. i.
9 | CS(=O)(=O)c1ncc(Cl)c(C(=O)Nc2cccc(Sc3ccccc3)c2)n1 [Compound 6b] | 0.00578 ± 0.00033 s⁻¹
10 | CS(=O)(=O)c1ncc(Cl)c(C(=O)Nc2ccc(-c3ccc(C#N)cc3)cc2)n1 [Compound 5d] | n. i.
11 | CS(=O)(=O)c1ncc(Cl)c(C(=O)N(Cc2ccccc2)Cc2ccccc2)n1 [Compound 5k] | n. i.
12 | CS(=O)(=O)c1ncc(Cl)c(C(=O)NCC(=O)Nc2cccc(Oc3ccccc3)c2)n1 [Compound 5b] | 0.00082 ± 0.00004 s⁻¹
13 | Cc1ccc(-c2csc(NC(=O)c3nc(S(C)(=O)=O)ncc3Cl)n2)cc1 [Compound 5g] | n. i.
14 | CS(=O)(=O)c1ncc(Cl)c(C(=O)Nc2cccc(Cc3ccccc3)c2)n1 [Compound 6d] | 0.00618 ± 0.00025 s⁻¹
15 | CS(=O)(=O)c1ncc(Cl)c(C(=O)NCCSc2ccccc2)n1 [Compound 6n] | n. i.
16 | CS(=O)(=O)c1ncc(Cl)c(C(=O)Nc2cccc(C(=O)Nc3ccccc3)c2)n1 [Compound 6m] | n. i.
17 | CS(=O)(=O)c1ncc(Cl)c(C(=O)Nc2cccc(OCc3ccccc3)c2)n1 [Compound 6k] | n. i.
18 | CS(=O)(=O)c1ncc(Cl)c(C(=O)Nc2ccc3c(c2)oc2ccccc23)n1 [Compound 6l] | n. i.
19 | CCC(CC)NC(=O)c1nc(S(C)(=O)=O)ncc1Cl [Compound 5i] | n. i.
20 | CS(=O)(=O)c1ncc(Cl)c(C(=O)N2CCc3ccccc3C2)n1 [Compound 5h] | n. i.
21 | CS(=O)(=O)c1ncc(Cl)c(C(=O)Nc2ccc3[nH]ncc3c2)n1 [Compound 5f] | n. i.
22 | CS(=O)(=O)c1ncc(Cl)c(C(=O)Nc2cccc(OC3CCCCC3)c2)n1 [Compound 6c] | 0.00864 ± 0.00092 s⁻¹

Same assay, conditions: read-out: KI; dissociation constant of the reversible enzyme-inhibitor complex; Tris pH 7.50; n. i. = <20% inhibition at 100 µM

Row | SMILES | KI (inactivation) [µM]
23 | CS(=O)(=O)c1ncc(Cl)c(C(=O)Nc2cccc(Sc3ccccc3)c2)n1 [Compound 6b] | 47.5 ± 4.62
24 | CS(=O)(=O)c1ncc(Cl)c(C(=O)NCC(=O)Nc2cccc(Oc3ccccc3)c2)n1 [Compound 5b] | 42.4 ± 4.62
25 | CS(=O)(=O)c1ncc(Cl)c(C(=O)Nc2cccc(Cc3ccccc3)c2)n1 [Compound 6d] | 60.3 ± 6.4
26 | CS(=O)(=O)c1ncc(Cl)c(C(=O)Nc2cccc(OC3CCCCC3)c2)n1 [Compound 6c] | 78.8 ± 9.92

Same assay, conditions: second-order rate of inhibition; Tris pH 7.50; n. i. = <20% inhibition at 100 µM

Row | SMILES | k 2nd
27 | CS(=O)(=O)c1ncc(Cl)c(C(=O)Nc2ccc(Oc3ccccc3)cc2)n1 [Compound 6h] | n. i.
28 | CS(=O)(=O)c1ncc(Cl)c(C(=O)Nc2cccc(Sc3ccccc3)c2)n1 [Compound 6b] | 7,305 ± 294 M^−1min^−1
29 | CS(=O)(=O)c1ncc(Cl)c(C(=O)Nc2ccc(-c3ccc(C#N)cc3)cc2)n1 [Compound 5d] | n. i.
30 | CS(=O)(=O)c1ncc(Cl)c(C(=O)N(Cc2ccccc2)Cc2ccccc2)n1 [Compound 5k] | n. i.
31 | CS(=O)(=O)c1ncc(Cl)c(C(=O)NCC(=O)Nc2cccc(Oc3ccccc3)c2)n1 [Compound 5b] | 1,175 M^−1min^−1 and 1,175 ± 67 M^−1min^−1
32 | Cc1ccc(-c2csc(NC(=O)c3nc(S(C)(=O)=O)ncc3Cl)n2)cc1 [Compound 5g] | n. i.
33 | CS(=O)(=O)c1ncc(Cl)c(C(=O)Nc2cccc(Cc3ccccc3)c2)n1 [Compound 6d] | 6,181 ± 489 M^−1min^−1
34 | CS(=O)(=O)c1ncc(Cl)c(C(=O)NCCSc2ccccc2)n1 [Compound 6n] | n. i.
35 | CS(=O)(=O)c1ncc(Cl)c(C(=O)Nc2cccc(C(=O)Nc3ccccc3)c2)n1 [Compound 6m] | n. i.
36 | CS(=O)(=O)c1ncc(Cl)c(C(=O)Nc2cccc(OCc3ccccc3)c2)n1 [Compound 6k] | n. i.
37 | CS(=O)(=O)c1ncc(Cl)c(C(=O)Nc2ccc3c(c2)oc2ccccc23)n1 [Compound 6l] | n. i.
38 | CCC(CC)NC(=O)c1nc(S(C)(=O)=O)ncc1Cl [Compound 5i] | n. i.
39 | CS(=O)(=O)c1ncc(Cl)c(C(=O)N2CCc3ccccc3C2)n1 [Compound 5h] | n. i.
40 | COc1cccc(NC(=O)c2nc(S(C)(=O)=O)ncc2Cl)c1 [Compound 6e] | 882 M⁻¹ min⁻¹ and 882 ± 43 M⁻¹ min⁻¹
41 | CS(=O)(=O)c1ncc(Cl)c(C(=O)Nc2cccc(-c3ccccc3)c2)n1 [Compound 6f] | 588 M⁻¹ min⁻¹ and 588 ± 48 M⁻¹ min⁻¹
42 | CS(=O)(=O)c1ncc(Cl)c(C(=O)Nc2ccc3[nH]ncc3c2)n1 [Compound 5f] | n. i.
43 | CS(=O)(=O)c1ncc(Cl)c(C(=O)Nc2cccc(OC3CCCCC3)c2)n1 [Compound 6c] | 6,593 M^−1min^−1 and 6,593 ± 243 M^−1min^−1

Test system: not given
Assay: not given
Conditions: not given

Row | SMILES | melting point [°C]
44 | CS(=O)(=O)c1ncc(Cl)c(C(=O)Nc2ccc(Oc3ccccc3)cc2)n1 [Compound 6h] | 195
45 | CS(=O)(=O)c1ncc(Cl)c(C(=O)Nc2cccc(Sc3ccccc3)c2)n1 [Compound 6b] | 135
46 | CS(=O)(=O)c1ncc(Cl)c(C(=O)Nc2ccc(-c3ccc(C#N)cc3)cc2)n1 [Compound 5d] | 267
47 | CS(=O)(=O)c1ncc(Cl)c(C(=O)N(Cc2ccccc2)Cc2ccccc2)n1 [Compound 5k] | 68
48 | CS(=O)(=O)c1ncc(Cl)c(C(=O)NCC(=O)Nc2cccc(Oc3ccccc3)c2)n1 [Compound 5b] | 91
49 | Cc1ccc(-c2csc(NC(=O)c3nc(S(C)(=O)=O)ncc3Cl)n2)cc1 [Compound 5g] | 280
50 | CS(=O)(=O)c1ncc(Cl)c(C(=O)Nc2cccc(Cc3ccccc3)c2)n1 [Compound 6d] | 148
51 | CS(=O)(=O)c1ncc(Cl)c(C(=O)Nc2cccc(C(=O)Nc3ccccc3)c2)n1 [Compound 6m] | 237
52 | CS(=O)(=O)c1ncc(Cl)c(C(=O)Nc2cccc(OCc3ccccc3)c2)n1 [Compound 6k] | 154
53 | CS(=O)(=O)c1ncc(Cl)c(C(=O)Nc2ccc3c(c2)oc2ccccc23)n1 [Compound 6l] | 250
54 | CCC(CC)NC(=O)c1nc(S(C)(=O)=O)ncc1Cl [Compound 5i] | 146
55 | CS(=O)(=O)c1ncc(Cl)c(C(=O)N2CCc3ccccc3C2)n1 [Compound 5h] | 218
56 | CS(=O)(=O)c1ncc(Cl)c(C(=O)Nc2cccc(-c3ccccc3)c2)n1 [Compound 6f] | 164
57 | CS(=O)(=O)c1ncc(Cl)c(C(=O)Nc2ccc3[nH]ncc3c2)n1 [Compound 5f] | 231
58 | CS(=O)(=O)c1ncc(Cl)c(C(=O)Nc2cccc(OC3CCCCC3)c2)n1 [Compound 6c] | 144
